Our source for the inhibition of growth and IC50 values is ChEMBL document CHEMBL1921675, “Synthesis and cytotoxic evaluation of novel paraconic acid analogs” (Bioorg Med Chem Lett, 2011).

For test [1], the system named is KB. The test can be described thus: Antiproliferative activity against human KB cells assessed as cellular growth inhibition at 10 uM after 72 hrs by MTS assay. In kind it is functional. Particulars: read-out: GI. (In general: Tetrazolium dyes change colour on reduction, which living cells bring about.)
Test [2] has as its system HCT-116. The experiment in a line: Antiproliferative activity against human HCT116 cells assessed as cellular growth inhibition at 10 uM after 72 hrs by MTS assay. In kind it is functional. Particulars: HCT-116, 72 h, read-out: GI.
Test [3] concerns MCF7. The experiment in a line: Antiproliferative activity against human MCF7 cells assessed as cellular growth inhibition at 10 uM after 72 hrs by MTS assay. The conditions noted are these: MCF7, 72 h, read-out: GI. Type of test: functional.
In test [4] the test system is HL-60. The experiment in a line: Antiproliferative activity against human HL60 cells assessed as cellular growth inhibition at 10 uM after 72 hrs by MTS assay. Type of test: functional. Particulars: HL-60, 72 h, read-out: GI.
Test [5] concerns KB. The test can be described thus: Antiproliferative activity against human KB cells after 72 hrs by MTS assay. In kind it is functional, cell-based.
For test [6], the system named is HCT-116. The experiment in a line: Antiproliferative activity against human HCT116 cells after 72 hrs by MTS assay. Type of test: functional, cell-based. The conditions noted are these: HCT-116, 72 h.
Test [7] concerns MCF7. The test can be described thus: Antiproliferative activity against human MCF7 cells after 72 hrs by MTS assay. In kind it is functional, cell-based. The conditions noted are these: MCF7, 72 h.
Test [8] concerns HL-60. The test can be described thus: Antiproliferative activity against human HL60 cells after 72 hrs by MTS assay. Type of test: functional, cell-based. Particulars: HL-60, 72 h.
A further test has as its system PC-3. The experiment in a line: Antiproliferative activity against human PC3 cells assessed as cellular growth inhibition at 10 uM after 72 hrs by MTS assay. In kind it is functional. Particulars: PC-3, 72 h, read-out: GI.
For another test, the system named is SK-OV-3. The experiment in a line: Antiproliferative activity against human SKOV3 cells assessed as cellular growth inhibition at 10 uM after 72 hrs by MTS assay. In kind it is functional. Particulars: SK-OV-3, 72 h, read-out: GI.
Test [9] in a line: Antiproliferative activity against human MCF7/R cells assessed as cellular growth inhibition at 10 uM after 72 hrs by MTS assay. Type of test: functional. The conditions noted are these: MCF7R, read-out: GI.
Test [10] in a line: Antiproliferative activity against human HL60R cells assessed as cellular growth inhibition at 10 uM after 72 hrs by MTS assay. In kind it is functional. Particulars: read-out: GI.

For orientation: IC50 means the concentration that gives 50% inhibition. A low value points to higher potency.

In the case of `COC(=O)C1(Cc2ccc(OC)cc2)CC(=O)OC1(C)c1cccc(C(F)(F)F)c1` (mixture of isomers), the inhibition of growth at 10 µM in the test on KB [1] was 38%; in the test with HCT-116 [2], 30%; in the test with MCF7 [3] it was 46%; with HL-60 [4], 52%.
With `CCCCCCC1OC(=O)CC1(Cc1ccc(OC)cc1)C(=O)OC` (mixture of isomers), the inhibition of growth at 10 µM amounted to 13% in the test on KB [1], 12% in the test with HCT-116 [2], 28% in the test on MCF7 [3] and 8% with HL-60 [4].
With `CCC1(c2ccccc2)OC(=O)CC1(Cc1ccc(OC)cc1)C(=O)OC` (mixture of isomers), the inhibition of growth at 10 µM with KB [1] was determined as 11%; in the test with HCT-116 [2], 28%; in the test on MCF7 [3], 21%; with HL-60 [4], 30%.
As for `COC(=O)C1(Cc2ccc(OC)cc2)CC(=O)OC1c1ccco1` (mixture of isomers), the inhibition of growth at 10 µM amounted to 32% in the test with KB [1], 0% with HCT-116 [2], 0% in the test on MCF7 [3] and 29% with HL-60 [4].
For the compound `COC(=O)C1(Cc2ccc3c(c2)OCO3)CC(=O)OC1c1ccccc1` (mixture of isomers), the inhibition of growth at 10 µM turned out to be 0% with KB [1], 18% in the test on HCT-116 [2], 11% in the test on MCF7 [3] and 18% with HL-60 [4].
For `COC(=O)C1(Cc2ccccc2)CC(=O)OC1(C)c1ccccc1` (mixture of isomers), the inhibition of growth at 10 µM stood at 6% with KB [1], 9% in the test on HCT-116 [2], 13% with MCF7 [3] and 22% in the test on HL-60 [4].
The like results for `COC(=O)C1(Cc2ccccc2)CC(=O)OC12CCCCC2` (racemic) were, in that order, 7%, 0%, 1% and 4%.
`COC(=O)C1(Cc2ccc(OC)cc2)CC(=O)OC1(C)c1ccccc1` (mixture of isomers): the inhibition of growth at 10 µM with KB [1] amounted to 95%; with HCT-116 [2], 61%; with MCF7 [3], 56%; with HL-60 [4] it was 82%; with PC-3 it was 68%; with SK-OV-3, 76%. The inhibition of growth at 10 µM in [9] worked out at 82%; in test [10], 92%. Also, the IC50 is 590 nM in the test on KB [5], 1350 nM in the test on HCT-116 [6], 2760 nM with MCF7 [7] and 870 nM in the test with HL-60 [8].
For the compound `COC(=O)C1(Cc2ccc(OC)cc2)CC(=O)OC1c1ccc(F)cc1` (mixture of isomers), the inhibition of growth at 10 µM came out at 33% in the test on KB [1], 0% with HCT-116 [2], 4% in the test with MCF7 [3] and 37% with HL-60 [4].
The like results for `COC(=O)[C@@]1(Cc2ccc(OC)cc2)CC(=O)O[C@]1(C)c1ccccc1` were, in that order, 98%, 56%, 59% and 68%.
The like results for `COC(=O)C1(Cc2ccc(OC)cc2)CC(=O)OC1c1ccccc1` (mixture of isomers) were, in that order, 19%, 4%, 0% and 15%.
The like results for `COC(=O)C1(Cc2cccc(C(F)(F)F)c2)CC(=O)OC1(C)c1ccccc1` (mixture of isomers) were, in that order, 21%, 22%, 20% and 21%.
On to `COC(=O)c1ccc(CC2(C(=O)OC)CC(=O)OC2c2ccccc2)cc1` (mixture of isomers), for which the inhibition of growth at 10 µM in the test on KB [1] was found to be 12%; with HCT-116 [2] it was 0%; with MCF7 [3], 0%; with HL-60 [4] it was 19%.
Consider `COC(=O)C1(Cc2cccc(C(F)(F)F)c2)CC(=O)OC1c1ccccc1` (mixture of isomers), for which the inhibition of growth at 10 µM with KB [1] was determined as 39%; in the test on HCT-116 [2], 14%; with MCF7 [3], 11%; in the test on HL-60 [4], 34%.
The like results for `COC(=O)C1(Cc2ccc(OC)cc2)CC(=O)OC1c1ccccc1C(F)(F)F` (mixture of isomers) were, in that order, 31%, 0%, 0% and 23%.
The like results for `COC(=O)C1(Cc2ccccc2)CC(=O)OC1c1ccccc1` (mixture of isomers) were, in that order, 18%, 0%, 0% and 22%.
For `COC(=O)C1(Cc2ccc(OC)cc2)CC(=O)OC1(c1ccccc1)C(F)(F)F` (mixture of isomers), the inhibition of growth at 10 µM with KB [1] came to 56%; in the test on HCT-116 [2], 20%; with MCF7 [3], 8%; in the test on HL-60 [4], 64%.
With `COC(=O)C1(Cc2ccc(OC)cc2)CC(=O)OC1c1ccc(C(F)(F)F)cc1` (mixture of isomers), the inhibition of growth at 10 µM in the test on KB [1] stood at 0%; in the test on HCT-116 [2], 0%; in the test on MCF7 [3], 4%; in the test on HL-60 [4], 2%.
